Test: xn = mol fraction of the nth substance listed
Settings: for kinematic viscosity: Liquid, Surface laser light scattering (SLLS)

C=C(F)C(F)(F)F [2,3,3,3-tetrafluoro-1-propene] + FCC(F)(F)F
Settings | kinematic viscosity [m2/s] | surface tension liquid-gas [mN/m]
293.15 K, x2 = 0.807 | 1.62e-07 | 8.25
293.2 K, x2 = 0.6018 | 1.61e-07 | 7.8
293.22 K, x2 = 0.3196 | 1.49e-07 | 7.38
303.13 K, x2 = 0.6018 | 1.43e-07 | 6.59
303.15 K, x2 = 0.807 | 1.47e-07 | 6.99
303.21 K, x2 = 0.3196 | 1.35e-07 | 6.14
313.12 K, x2 = 0.3196 | 1.25e-07 | 4.93
313.15 K, x2 = 0.6018 | 1.29e-07 | 5.41
323.1 K, x2 = 0.3196 | 1.15e-07 | 3.95
323.15 K, x2 = 0.807 | 1.26e-07 | 4.55
323.16 K, x2 = 0.6018 | 1.22e-07 | 4.24
333.12 K, x2 = 0.6018 | 1.12e-07 | 3.15
333.15 K, x2 = 0.807 | 1.13e-07 | 3.41
333.16 K, x2 = 0.3196 | 1.07e-07 | 2.87
343.14 K, x2 = 0.807 | 1.04e-07 | 2.39
343.16 K, x2 = 0.6018 | 1e-07 | 2.11
343.19 K, x2 = 0.3196 | 9.77e-08 | 1.88
353.1 K, x2 = 0.807 | 9.22e-08 | 1.31
353.16 K, x2 = 0.3196 | 8.7e-08 | 1
353.19 K, x2 = 0.6018 | 8.9e-08 | 1.17
358.15 K, x2 = 0.3196 | 8.36e-08 | 0.6
363.16 K, x2 = 0.807 | 8.21e-08 | 0.53
363.19 K, x2 = 0.6018 | 7.95e-08 | 0.37

F/C=C/C(F)(F)F [trans-1,3,3,3-tetrafluoropropene] + FCC(F)(F)F
x2 = 0.4446
Settings | kinematic viscosity [m2/s] | surface tension liquid-gas [mN/m]
293.1 K | 1.78e-07 | 8.89
303.16 K | 1.62e-07 | 7.58
313.12 K | 1.45e-07 | 6.34
323.11 K | 1.3e-07 | 5.16
333.14 K | 1.21e-07 | 3.98
343.14 K | 1.12e-07 | 2.92
353.1 K | 1.02e-07 | 1.92
363.1 K | 9e-08 | 1.01
369.15 K | 8.63e-08 | 0.53
